Ki and IC50 data for five molecules are collected here from patent US5397796A, “2,4-dioxoimidazolidine compounds and compositions, and processes for administering same” (Cassella AG, priority 1992, dated 1995).

The structures appear in SMILES notation. Where two headings read alike, the source gives them in different places.

Experiment [1] addresses T1, fibrinogen receptor (glycoprotein IIb/IIIa) (Homo sapiens, UniProt P05106+P08514).
T1 construct: endogenous in cells; host or cells: gel-filtered human platelets from donor blood, stimulated with ADP (10 µM)
Nature of the experiment: Inhibition of binding of 125I-fibrinogen to its receptor on intact, gel-filtered human platelets. Particulars: inhibition of 125I-fibrinogen binding, stimulation with ADP (10 μM), read-out: Ki (μM), ADP-stimulated. The procedure: (§1) The compounds are tested in particular for their inhibitory action in blood platelet aggregation and the adhesion of fibrinogen to blood platelets. Gel-filtered blood platelets from human donor blood are used, which are activated with ADP or thrombin.
The inhibition of the binding of fibrinogen to its receptor (glycoprotein IIb/IIIa) by the compounds according to the invention is tested on intact, gel-filtered human platelets. The Ki value of the inhibition of binding of ^125 I-fibrinogen after stimulation with ADP (10 μM) is given.

Experiment [2] has as its system gel-filtered human platelets. Nature of the experiment: Inhibition of aggregation of gel-filtered human platelets after ADP or thrombin stimulation. It is filed as cell-based. The procedure: as §1
As a functional test, the inhibition of aggregation of gel-filtered human platelets by the compounds according to the invention is measured after ADP or thrombin stimulation. The IC50 value of the inhibition is given.

The mark [3] stands for this setting: Platelet, ADP stimulation, read-out: IC50 (μM), ADP-stimulated.
Setting [4] is: Platelet, thrombin stimulation, read-out: IC50 (μM), Thrombin-stimulated.
Where [5] appears, read: ADP stimulation, read-out: IC50 (μM), ADP-stimulated.
Where [6] appears, read: thrombin stimulation, read-out: IC50 (μM), Thrombin-stimulated.

T1 sequence (P08514 32-887 limits assumed): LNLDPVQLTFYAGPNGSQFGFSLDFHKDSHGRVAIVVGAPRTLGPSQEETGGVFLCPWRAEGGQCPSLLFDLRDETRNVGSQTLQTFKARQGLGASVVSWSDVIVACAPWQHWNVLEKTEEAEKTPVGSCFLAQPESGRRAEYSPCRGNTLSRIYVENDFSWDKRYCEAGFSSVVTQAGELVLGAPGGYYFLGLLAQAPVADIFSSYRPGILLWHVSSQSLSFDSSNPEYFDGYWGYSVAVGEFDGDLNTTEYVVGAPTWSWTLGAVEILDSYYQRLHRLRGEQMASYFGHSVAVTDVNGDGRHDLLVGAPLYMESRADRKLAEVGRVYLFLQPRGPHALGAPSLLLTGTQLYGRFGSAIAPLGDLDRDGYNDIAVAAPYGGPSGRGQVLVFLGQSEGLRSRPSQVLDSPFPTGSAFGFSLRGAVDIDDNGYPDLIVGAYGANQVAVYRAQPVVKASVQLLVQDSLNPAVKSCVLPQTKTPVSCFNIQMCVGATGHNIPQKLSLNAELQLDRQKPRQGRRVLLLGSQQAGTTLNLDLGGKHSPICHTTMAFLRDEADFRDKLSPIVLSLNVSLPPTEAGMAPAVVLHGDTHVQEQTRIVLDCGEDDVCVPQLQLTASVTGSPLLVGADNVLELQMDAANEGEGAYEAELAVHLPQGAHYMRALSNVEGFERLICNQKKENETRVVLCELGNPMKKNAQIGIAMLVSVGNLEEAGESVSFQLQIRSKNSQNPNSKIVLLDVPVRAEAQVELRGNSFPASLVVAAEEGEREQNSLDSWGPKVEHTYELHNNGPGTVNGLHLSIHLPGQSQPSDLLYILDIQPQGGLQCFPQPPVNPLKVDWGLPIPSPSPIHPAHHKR
T1 sequence (P08514 891-1039 partner limits assumed): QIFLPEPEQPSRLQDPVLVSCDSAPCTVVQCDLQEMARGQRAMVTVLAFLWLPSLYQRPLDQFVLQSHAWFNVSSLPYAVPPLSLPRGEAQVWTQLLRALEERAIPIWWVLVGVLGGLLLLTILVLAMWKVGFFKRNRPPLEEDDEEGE
T1 sequence (P05106 27-788): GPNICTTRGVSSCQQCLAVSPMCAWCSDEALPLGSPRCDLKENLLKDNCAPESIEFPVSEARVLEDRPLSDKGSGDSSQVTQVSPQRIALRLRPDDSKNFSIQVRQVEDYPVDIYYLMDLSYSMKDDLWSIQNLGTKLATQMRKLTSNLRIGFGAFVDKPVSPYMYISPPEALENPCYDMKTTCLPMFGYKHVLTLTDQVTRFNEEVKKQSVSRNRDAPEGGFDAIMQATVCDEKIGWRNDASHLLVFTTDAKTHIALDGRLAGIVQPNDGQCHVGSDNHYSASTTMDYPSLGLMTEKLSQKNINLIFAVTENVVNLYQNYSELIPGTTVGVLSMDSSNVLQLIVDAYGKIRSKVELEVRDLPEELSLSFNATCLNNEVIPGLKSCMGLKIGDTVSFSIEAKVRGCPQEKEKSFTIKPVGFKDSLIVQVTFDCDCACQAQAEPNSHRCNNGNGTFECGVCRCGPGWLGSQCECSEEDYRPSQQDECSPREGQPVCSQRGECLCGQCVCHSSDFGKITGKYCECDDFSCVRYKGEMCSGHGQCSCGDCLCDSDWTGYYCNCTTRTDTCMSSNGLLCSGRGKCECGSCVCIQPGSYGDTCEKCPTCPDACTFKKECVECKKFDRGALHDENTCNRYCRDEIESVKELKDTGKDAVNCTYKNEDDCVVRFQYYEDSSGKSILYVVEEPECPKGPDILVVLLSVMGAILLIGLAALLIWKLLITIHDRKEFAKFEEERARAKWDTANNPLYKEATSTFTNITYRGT

Broadly, the Ki is a dissociation constant, usually derived from enzyme kinetics or from competition with a known ligand. One may read the IC50 as the midpoint of a concentration-inhibition curve. Take `N=C(N)NCCC[C@@H]1NC(=O)N(CC(=O)N[C@@H](CC(=O)O)C(=O)N[C@@H](Cc2ccccc2)C(=O)NCCCCN)C1=O` [Example 1, (5-(S)-(3-Guanidinopropyl)-2,4-dioxoimidazolidin-3-yl)acetyl-L-aspartyl-L-phenylalanine (4-aminobutyl) amide acetate]: the Ki in experiment [1] was found to be 2.5 µM. The values for the IC50 in experiment [2] (setting [3]) and in experiment [2] (setting [4]) were 1.5 µM and 2 µM, respectively.

`N=C(N)NCCC[C@@H]1NC(=O)N(CC(=O)N[C@@H](CC(=O)O)C(=O)N[C@@H](Cc2ccccc2)C(=O)NCCCCCCCCN)C1=O` [Example 3, (5-(S)-(3-Guanidinopropyl)-2,4-dioxoimidazolidin-3-yl)acetyl-L-aspartyl-L-phenylalanine (8-aminooctyl) amide acetate]: the Ki in experiment [1] came out at 3.21 µM. Besides, the IC50 is 5 µM in experiment [2] (setting [3]) and 3 µM in experiment [2] (setting [4]).

`N=C(N)c1ccc(CC2NC(=O)N(CC(=O)N[C@@H](CC(=O)O)C(=O)N[C@@H](Cc3ccccc3)C(=O)NCCCCN)C2=O)cc1` (stereo partly drawn) [Example 4, (5-(R,S)-(4-Formamidinobenzyl)-2,4-dioxoimidazolidin-3-yl)acetyl-L-aspartyl-L-phenylalanine (4-aminobutyl) amide acetate]: in experiment [1], the inhibition constant Ki stood at 0.32 µM. For the same molecule, the IC50 in experiment [2] (setting [5]) came out at 0.45 µM; in experiment [2] (setting [6]), 1 µM.

For `N=C(N)c1ccc(CC2NC(=O)N(CC(=O)N[C@@H](CC(=O)O)C(=O)N[C@@H](CCCCN)C(=O)NCCCCN)C2=O)cc1` (stereo partly drawn) [Example 7, (5-(R,S)-(4-Formamidino-benzyl)-2,4-dioxoimidazolidin-3-yl)acetyl-L-aspartyl-L-lysine (4-aminobutyl) amide], in experiment [1], the Ki turned out to be 0.17 µM. Further, the figures for the IC50 in experiment [2] (setting [5]) and in experiment [2] (setting [6]) were 0.25 µM and 0.6 µM, respectively.

On to `N=C(N)NCCC[C@@H]1NC(=O)N(CC(=O)N[C@@H](CC(=O)O)C(=O)N[C@@H](Cc2ccccc2)C(=O)NCCCCCCN)C1=O` [Example 2, (5-(S)-(3-Guanidinopropyl)-2,4-dioxoimidazolidin-3-yl)acetyl-L-aspartyl-L-phenylalanine (6-aminohexyl) amide acetate], for which the Ki in experiment [1] is 2.44 µM. For the same molecule, the IC50 in experiment [2] (setting [3]) was 3 µM; in experiment [2] (setting [4]), 3.5 µM.
